# Test results published in US20140106968A1, “SUBSTITUTED 1,2,4-TRIAZINE-3,5-DIONES AS HERBICIDES” (E I Du Pont De Nemours and Company, priority 2012, published 2014).
# Assays:
# Format in all cases: in vivo
# [1] = system: small-flower umbrella sedge (Cyperus difformis); test: Test B flooded paddy test, small-flower umbrella sedge; details: scale of 0 to 100, 0 no effect, 100 complete control, 13 to 15 days
# Method: (§1) Plant species in the flooded paddy test selected from rice (Oryza sativa), small-flower umbrella sedge (Cyperus difformis), duck salad (Heteranthera limosa), and barnyardgrass (Echinochloa crus-galli) were grown to the 2-leaf stage for testing. At time of treatment, test pots were flooded to 3 cm above the soil surface, treated by application of test compounds directly to the paddy water, and then maintained at that water depth for the duration of the test. Treated plants and controls were maintained in a greenhouse for 13 to 15 days, after which time all species were visually compared to controls and visually evaluated. Plant response ratings, summarized in Table B, are based on a scale of 0 to 100 where 0 is no effect and 100 is complete control. A dash (-) response means no test result.
# [2] = system: rice (Oryza sativa); test: Test B flooded paddy test, rice; details: scale of 0 to 100, 0 no effect, 100 complete control, 13 to 15 days
# Method: as §1
# [3] = system: corn (Zea mays); test: Test A greenhouse pre-/postemergence herbicide test, corn; details: 0 to 100 scale, 0 no effect, 100 complete control, approx. 10 days
# From the text: (§2) Seeds of plant species selected from barnyardgrass (Echinochloa crus-galli), large (Lg) crabgrass (Digitaria sanguinalis), giant foxtail (Setaria faberii), morningglory (Ipomoea spp.), pigweed (redroot pigweed, Amaranthus retroflexus), velvetleaf (Abutilon theophrasti), winter wheat (Triticum aestivum), and corn (Zea mays) were planted into a blend of loam soil and sand and treated preemergence with a directed soil spray using test chemicals formulated in a non-phytotoxic solvent mixture which included a surfactant. At the same time these species were also treated with postemergence applications of test compounds formulated in the same manner. Plants ranged in height from 2 to 10 cm and were in the one- to two-leaf stage for the postemergence treatment. Treated plants and untreated controls were maintained in a greenhouse for approximately 10 days, after which time all treated plants were visually compared to untreated controls and visually evaluated for injury. Plant response ratings, summarized in Table A, are based on a 0 to 100 scale where 0 is no effect and 100 is complete control. A dash (-) response means no test result.
# [4] = system: barnyardgrass (Echinochloa crus-galli); test: Test B flooded paddy test, barnyardgrass; details: scale of 0 to 100, 0 no effect, 100 complete control, 13 to 15 days
# Method: as §1
# [5] = system: pigweed (redroot pigweed, Amaranthus retroflexus); test: Test A greenhouse pre-/postemergence herbicide test, pigweed; details: 0 to 100 scale, 0 no effect, 100 complete control, approx. 10 days
# From the text: as §2
# [6] = system: morningglory (Ipomoea spp.); test: Test A greenhouse pre-/postemergence herbicide test, morningglory; details: 0 to 100 scale, 0 no effect, 100 complete control, approx. 10 days
# From the text: as §2
# [7] = system: barnyardgrass (Echinochloa crus-galli); test: Test A greenhouse pre-/postemergence herbicide test, barnyardgrass; details: 0 to 100 scale, 0 no effect, 100 complete control, approx. 10 days
# From the text: as §2
# [8] = system: duck salad (Heteranthera limosa); test: Test B flooded paddy test, duck salad; details: scale of 0 to 100, 0 no effect, 100 complete control, 13 to 15 days
# Method: as §1
# [9] = system: velvetleaf (Abutilon theophrasti); test: Test A greenhouse pre-/postemergence herbicide test, velvetleaf; details: 0 to 100 scale, 0 no effect, 100 complete control, approx. 10 days
# From the text: as §2
# [10] = system: giant foxtail (Setaria faberii); test: Test A greenhouse pre-/postemergence herbicide test, giant foxtail; details: 0 to 100 scale, 0 no effect, 100 complete control, approx. 10 days
# From the text: as §2
# [11] = system: winter wheat (Triticum aestivum); test: Test A greenhouse pre-/postemergence herbicide test, winter wheat; details: 0 to 100 scale, 0 no effect, 100 complete control, approx. 10 days
# From the text: as §2
# [12] = system: large (Lg) crabgrass (Digitaria sanguinalis); test: Test A greenhouse pre-/postemergence herbicide test, large crabgrass; details: 0 to 100 scale, 0 no effect, 100 complete control, approx. 10 days
# From the text: as §2
compound,measurement,setting,value
"Cn1nc(C(=O)C2=C(O)CCCC2=O)c(=O)n(CCS(=O)(=O)CC2CC2)c1=O [Compound 3, 4-[2-[(cyclopropylmethyl)sulfonyl]ethyl]-6-[(2-hydroxy-6-oxo-1-cyclohexen-1-yl)carbonyl]-2-methyl-1,2,4-triazine-3,5(2H,4H)-dione]","Plant response rating, Sedge, Umbrella",[1]; 31 g ai/ha Flood,0
same,"Plant response rating, Sedge, Umbrella",[1]; 62 g ai/ha Flood,0
same,"Plant response rating, Sedge, Umbrella",[1]; 125 g ai/ha Flood,50
same,"Plant response rating, Sedge, Umbrella",[1]; 250 g ai/ha Flood,75
same,"Plant response rating, Rice",[2]; 31 g ai/ha Flood,0
same,"Plant response rating, Rice",[2]; 62 g ai/ha Flood,0
same,"Plant response rating, Rice",[2]; 125 g ai/ha Flood,0
same,"Plant response rating, Rice",[2]; 250 g ai/ha Flood,30
same,"Plant response rating, Corn",[3]; 31 g ai/ha Postemergence,0
same,"Plant response rating, Corn",[3]; 31 g ai/ha Preemergence,0
same,"Plant response rating, Corn",[3]; 125 g ai/ha Postemergence,0
same,"Plant response rating, Corn",[3]; 125 g ai/ha Preemergence,0
same,"Plant response rating, Barnyardgrass",[4]; 31 g ai/ha Flood,0
same,"Plant response rating, Barnyardgrass",[4]; 62 g ai/ha Flood,0
same,"Plant response rating, Barnyardgrass",[4]; 125 g ai/ha Flood,0
same,"Plant response rating, Barnyardgrass",[4]; 250 g ai/ha Flood,20
same,"Plant response rating, Pigweed",[5]; 31 g ai/ha Postemergence,40
same,"Plant response rating, Pigweed",[5]; 31 g ai/ha Preemergence,20
same,"Plant response rating, Pigweed",[5]; 125 g ai/ha Postemergence,100
same,"Plant response rating, Pigweed",[5]; 125 g ai/ha Preemergence,100
same,"Plant response rating, Morningglory",[6]; 31 g ai/ha Postemergence,60
same,"Plant response rating, Morningglory",[6]; 125 g ai/ha Postemergence,60
same,"Plant response rating, Morningglory",[6]; 125 g ai/ha Preemergence,10
same,"Plant response rating, Barnyardgrass",[7]; 31 g ai/ha Postemergence,20
same,"Plant response rating, Barnyardgrass",[7]; 31 g ai/ha Preemergence,0
same,"Plant response rating, Barnyardgrass",[7]; 125 g ai/ha Postemergence,90
same,"Plant response rating, Barnyardgrass",[7]; 125 g ai/ha Preemergence,40
same,"Plant response rating, Ducksalad",[8]; 31 g ai/ha Flood,0
same,"Plant response rating, Ducksalad",[8]; 62 g ai/ha Flood,0
same,"Plant response rating, Ducksalad",[8]; 125 g ai/ha Flood,0
same,"Plant response rating, Ducksalad",[8]; 250 g ai/ha Flood,85
same,"Plant response rating, Velvetleaf",[9]; 31 g ai/ha Postemergence,100
same,"Plant response rating, Velvetleaf",[9]; 31 g ai/ha Preemergence,0
same,"Plant response rating, Velvetleaf",[9]; 125 g ai/ha Postemergence,100
same,"Plant response rating, Velvetleaf",[9]; 125 g ai/ha Preemergence,30
same,"Plant response rating, Foxtail, Giant",[10]; 31 g ai/ha Postemergence,0
same,"Plant response rating, Foxtail, Giant",[10]; 31 g ai/ha Preemergence,0
same,"Plant response rating, Foxtail, Giant",[10]; 125 g ai/ha Postemergence,40
same,"Plant response rating, Foxtail, Giant",[10]; 125 g ai/ha Preemergence,0
same,"Plant response rating, Wheat",[11]; 31 g ai/ha Postemergence,0
same,"Plant response rating, Wheat",[11]; 31 g ai/ha Preemergence,0
same,"Plant response rating, Wheat",[11]; 125 g ai/ha Postemergence,30
same,"Plant response rating, Wheat",[11]; 125 g ai/ha Preemergence,10
same,"Plant response rating, Crabgrass, Large",[12]; 31 g ai/ha Postemergence,30
same,"Plant response rating, Crabgrass, Large",[12]; 31 g ai/ha Preemergence,10
same,"Plant response rating, Crabgrass, Large",[12]; 125 g ai/ha Postemergence,90
same,"Plant response rating, Crabgrass, Large",[12]; 125 g ai/ha Preemergence,40
"Cn1nc(C(=O)C2=C(O)CCCC2=O)c(=O)n(CCSCC2CC2)c1=O [Compound 4, 4-[2-[(cyclopropylmethyl)thio]ethyl]-6-[(2-hydroxy-6-oxo-1-cyclohexen-1-yl)carbonyl]-2-methyl-1,2,4-triazine-3,5(2H,4H)-dione]","Plant response rating, Sedge, Umbrella",[1]; 31 g ai/ha Flood,0
same,"Plant response rating, Sedge, Umbrella",[1]; 62 g ai/ha Flood,0
same,"Plant response rating, Sedge, Umbrella",[1]; 125 g ai/ha Flood,50
same,"Plant response rating, Sedge, Umbrella",[1]; 250 g ai/ha Flood,65
same,"Plant response rating, Rice",[2]; 31 g ai/ha Flood,0
same,"Plant response rating, Rice",[2]; 62 g ai/ha Flood,0
same,"Plant response rating, Rice",[2]; 125 g ai/ha Flood,15
same,"Plant response rating, Rice",[2]; 250 g ai/ha Flood,60
same,"Plant response rating, Corn",[3]; 31 g ai/ha Postemergence,0
same,"Plant response rating, Corn",[3]; 31 g ai/ha Preemergence,0
same,"Plant response rating, Corn",[3]; 125 g ai/ha Postemergence,0
same,"Plant response rating, Corn",[3]; 125 g ai/ha Preemergence,0
same,"Plant response rating, Barnyardgrass",[4]; 31 g ai/ha Flood,0
same,"Plant response rating, Barnyardgrass",[4]; 62 g ai/ha Flood,0
same,"Plant response rating, Barnyardgrass",[4]; 125 g ai/ha Flood,0
same,"Plant response rating, Barnyardgrass",[4]; 250 g ai/ha Flood,15
same,"Plant response rating, Pigweed",[5]; 31 g ai/ha Postemergence,10
same,"Plant response rating, Pigweed",[5]; 31 g ai/ha Preemergence,0
same,"Plant response rating, Pigweed",[5]; 125 g ai/ha Postemergence,50
same,"Plant response rating, Pigweed",[5]; 125 g ai/ha Preemergence,0
same,"Plant response rating, Morningglory",[6]; 31 g ai/ha Postemergence,10
same,"Plant response rating, Morningglory",[6]; 31 g ai/ha Preemergence,0
same,"Plant response rating, Morningglory",[6]; 125 g ai/ha Postemergence,100
same,"Plant response rating, Morningglory",[6]; 125 g ai/ha Preemergence,0
same,"Plant response rating, Barnyardgrass",[7]; 31 g ai/ha Postemergence,0
same,"Plant response rating, Barnyardgrass",[7]; 31 g ai/ha Preemergence,0
same,"Plant response rating, Barnyardgrass",[7]; 125 g ai/ha Postemergence,10
same,"Plant response rating, Barnyardgrass",[7]; 125 g ai/ha Preemergence,0
same,"Plant response rating, Ducksalad",[8]; 31 g ai/ha Flood,0
same,"Plant response rating, Ducksalad",[8]; 62 g ai/ha Flood,0
same,"Plant response rating, Ducksalad",[8]; 125 g ai/ha Flood,50
same,"Plant response rating, Ducksalad",[8]; 250 g ai/ha Flood,65
same,"Plant response rating, Velvetleaf",[9]; 31 g ai/ha Postemergence,70
same,"Plant response rating, Velvetleaf",[9]; 31 g ai/ha Preemergence,0
same,"Plant response rating, Velvetleaf",[9]; 125 g ai/ha Postemergence,90
same,"Plant response rating, Velvetleaf",[9]; 125 g ai/ha Preemergence,0
same,"Plant response rating, Foxtail, Giant",[10]; 31 g ai/ha Postemergence,0
same,"Plant response rating, Foxtail, Giant",[10]; 31 g ai/ha Preemergence,0
same,"Plant response rating, Foxtail, Giant",[10]; 125 g ai/ha Postemergence,0
same,"Plant response rating, Foxtail, Giant",[10]; 125 g ai/ha Preemergence,0
same,"Plant response rating, Wheat",[11]; 31 g ai/ha Postemergence,0
same,"Plant response rating, Wheat",[11]; 31 g ai/ha Preemergence,0
same,"Plant response rating, Wheat",[11]; 125 g ai/ha Postemergence,10
same,"Plant response rating, Wheat",[11]; 125 g ai/ha Preemergence,0
same,"Plant response rating, Crabgrass, Large",[12]; 31 g ai/ha Postemergence,0
same,"Plant response rating, Crabgrass, Large",[12]; 31 g ai/ha Preemergence,0
same,"Plant response rating, Crabgrass, Large",[12]; 125 g ai/ha Postemergence,10
same,"Plant response rating, Crabgrass, Large",[12]; 125 g ai/ha Preemergence,0
